Data published in US10125134B2 (Mirati Therapeutics, Inc., priority 2016, dated 2018).
Structures can show the parent of a compound that is named as a salt. Where two headings read alike, the source gives them in different places.

Experiments:
KRas G12C = KRas G12C (Homo sapiens, UniProt P01116, C118S/C51S/C80L/G12C); experiment: KRas G12C Modification Assay (LCMS detection of covalent adduct); format: binding; conditions: normalized percent of control; tested at 5 μM concentration for 3 hours
In short: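 Cys-light KRas G12C mutant protein incubated with compound in K-Ras assay buffer, reactions quenched at set time points with 25 mM acetic acid and analysed by intact-protein LC/MS on a C-3 column. Deconvoluted mass heights expressed as percent of control (POC) relative to compound-free protein.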

[1] = tested on: NCI-H358 cells (express KRas G12C), Phospho-ERK; experiment: Cellular inhibition of KRas G12C: Phospho-ERK in NCI-H358 cells; format: cell-based; conditions: Homo sapiens, pERK(Thr202/Tyr204) normalized with GAPDH, NCI-H358 cells, 3 hours, read-out: IC50
In short: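 IC50 derived by 4-parameter fit of GAPDH-normalized pERK(Thr202/Tyr204) signal, as percent of DMSO control. Signal came from in-cell immunodetection with infrared secondaries after 3 h compound exposure of KRas G12C NCI-H358 cells at 0.5% DMSO.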

## C=CC(=O)N1CCN(c2nc(N3CCCC3)nc3c2CCN(c2cc(O)cc4ccccc24)C3)CC1 [Example 119, 1-(4-(7-(3-hydroxynaphthalen-1-yl)-2-(pyrrolidin-1-yl)-5,6,7,8-tetrahydropyrido[3,4-d]pyrimidin-4-yl)piperazin-1-yl)prop-2-en-1-one]
KRas G12C
  POC: B (“B”>25% POC−≤50% POC)
[1]; NCI-H358, 3 h
  IC50: > 1000 nM

## C=CC(=O)N1CCN(c2nc(O[C@H](C)CN3CCCC3)nc3c2CCN(c2cc(O)cc4ccccc24)C3)CC1 [Example 120, (R)-1-(4-(7-(3-hydroxynaphthalen-1-yl)-2-((1-(pyrrolidin-1-yl)propan-2-yl)oxy)-5,6,7,8-tetrahydropyrido[3,4-d]pyrimidin-4-yl)piperazin-1-yl)prop-2-en-1-one]
KRas G12C
  POC: C (“C”>50% POC)
[1]; NCI-H358, 3 h
  IC50: 0.1 to 1000 nM

## C=CC(=O)N1CCN(c2nc(OCCCN3CCOCC3)nc3c2CCN(c2cc(O)cc4ccccc24)C3=O)CC1 [Example 121, 4-(4-acryloylpiperazin-1-yl)-7-(3-hydroxynaphthalen-1-yl)-2-(3-morpholinopropoxy)-6,7-dihydropyrido[3,4-d]pyrimidin-8(5H)-one]
KRas G12C
  POC: C (“C”>50% POC)
[1]
  IC50: > 1000 nM

## C[C@H](CN(C)C)Oc1nc2c(c(N3CCN(C(=O)/C=C/CN(C)C)CC3)n1)CCN(c1cc(O)cc3ccccc13)C2 [Example 122, (R,E)-4-(dimethylamino)-1-(4-(2-((1-(dimethylamino)propan-2-yl)oxy)-7-(3-hydroxynaphthalen-1-yl)-5,6,7,8-tetrahydropyrido[3,4-d]pyrimidin-4-yl)piperazin-1-yl)but-2-en-1-one bis-trifluoroacetate]
KRas G12C
  POC: C (“C”>50% POC)
[1]
  IC50: > 1000 nM

## C=CC(=O)N1CCN(c2nc(OCC(O)CN3CCOCC3)nc3c2CCN(c2cc(O)cc4ccccc24)C3)CC1 (stereo not shown) [Example 123, 1-(4-(2-(2-hydroxy-3-morpholinopropoxy)-7-(3-hydroxynaphthalen-1-yl)-5,6,7,8-tetrahydropyrido[3,4-d]pyrimidin-4-yl)piperazin-1-yl)prop-2-en-1-one]
KRas G12C
  POC: A (“A”≤25% POC)
[1]; NCI-H358, 3 h
  IC50: > 1000 nM

## C=CC(=O)N1CCN(c2nc(O[C@H](C)CN(C)C)nc3c2CCN(c2cc(O)c(F)c4ccccc24)C3)CC1 [Example 124, (R)-1-(4-(2-((1-(dimethylamino)propan-2-yl)oxy)-7-(4-fluoro-3-hydroxynaphthalen-1-yl)-5,6,7,8-tetrahydropyrido[3,4-d]pyrimidin-4-yl)piperazin-1-yl)prop-2-en-1-one]
KRas G12C
  POC: C (“C”>50% POC)
[1]
  IC50: > 1000 nM

## C=CC(=O)N1CCN(c2nc(O[C@H](C)CN(C)C)nc3c2CCN(c2cc(O)c(Cl)c4ccccc24)C3)CC1 [Example 125, (R)-1-(4-(7-(4-chloro-3-hydroxynaphthalen-1-yl)-2-((1-(dimethylamino)propan-2-yl)oxy)-5,6,7,8-tetrahydropyrido[3,4-d]pyrimidin-4-yl)piperazin-1-yl)prop-2-en-1-one]
KRas G12C
  POC: A (“A”≤25% POC)
[1]
  IC50: > 1000 nM

## C=CC(=O)N1CCN(c2nc(OCCc3ccccn3)nc3c2CCN(c2cc(O)cc4ccccc24)C3)CC1 [Example 126, 1-(4-(7-(3-hydroxynaphthalen-1-yl)-2-(2-(pyridin-2-yl)ethoxy)-5,6,7,8-tetrahydropyrido[3,4-d]pyrimidin-4-yl)piperazin 1-yl)prop-2-en-1-one trifluoroacetate]
KRas G12C
  POC: C (“C”>50% POC)
[1]; NCI-H358, 3 h
  IC50: > 1000 nM

## C=CC(=O)N1CCN(c2nc(N3CC(N(C)C)C3)nc3c2CCN(c2cc(O)cc4ccccc24)C3)CC1 [Example 128, 1-(4-(2-(3-(dimethylamino)azetidin-1-yl)-7-(3-hydroxynaphthalen-1-yl)-5,6,7,8-tetrahydropyrido[3,4-d]pyrimidin-4-yl)piperazin-1-yl)prop-2-en-1-one]
KRas G12C
  POC: C (“C”>50% POC)
[1]; NCI-H358, 3 h
  IC50: > 1000 nM

## C=CC(=O)N1CCN(c2nc(O[C@H](C)[C@H]3CCCN3C)nc3c2CCN(c2cc(O)cc4ccccc24)C3)CC1 [Example 129, 1-[4-[7-(3-hydroxy-1-naphthyl)-2-[(1R)-1-[(2R)-1-methylpyrrolidin-2-yl]ethoxy]-6,8-dihydro-5H-pyrido[3,4-d]pyrimidin-4-yl]piperazin-1-yl]prop-2-en-1-one]
KRas G12C
  POC: C (“C”>50% POC)
[1]; NCI-H358, 3 h
  IC50: 0.1 to 1000 nM

## C=CC(=O)N1CCN(c2nc(O[C@@H](C)[C@@H]3CCCN3C)nc3c2CCN(c2cc(O)cc4ccccc24)C3)CC1 [Example 130, 1-(4-(7-(3-hydroxynaphthalen-1-yl)-2-((S)-1-((S)-1-methylpyrrolidin-2-yl)ethoxy)-5,6,7,8-tetrahydropyrido[3,4-d]pyrimidin-4-yl)piperazin-1-yl)prop-2-en-1-one]
KRas G12C
  POC: C (“C”>50% POC)
[1]; NCI-H358, 3 h
  IC50: 0.1 to 1000 nM

## C=CC(=O)N1CCN(c2nc(O[C@H](C)CN(C)CC)nc3c2CCN(c2cc(O)cc4ccccc24)C3)CC1 [Example 131, 1-[4-[2-[(1R)-2-[ethyl(methyl)amino]-1-methyl-ethoxy]-7-(3-hydroxy-1-naphthyl)-6,8-dihydro-5H-pyrido[3,4-d]pyrimidin-4-yl]piperazin-1-yl]prop-2-en-1-one]
KRas G12C
  POC: C (“C”>50% POC)
[1]
  IC50: 0.1 to 1000 nM

## C=CC(=O)N1CCN(c2nc(OCC3CCN(C4CCCCC4)C3)nc3c2CCN(c2cc(O)cc4ccccc24)C3)CC1 (stereo not shown) [Example 132, 1-[4-[2-[(1-cyclohexylpyrrolidin-3-yl)methoxy]-7-(3-hydroxy-1-naphthyl)-6,8-dihydro-5H-pyrido[3,4-d]pyrimidin-4-yl]piperazin-1-yl]prop-2-en-1-one]
KRas G12C
  POC: C (“C”>50% POC)
[1]; NCI-H358, 3 h
  IC50: 0.1 to 1000 nM

## C=CC(=O)N1CCN(c2nc(NCCCN3CCOCC3)nc3c2CCN(c2cc(O)cc4ccccc24)C3)CC1 [Example 133, 1-[4-[7-(3-hydroxy-1-naphthyl)-2-(3-morpholinopropylamino)-6,8-dihydro-5H-pyrido[3,4-d]pyrimidin-4-yl]piperazin-1-yl]prop-2-en-1-one]
KRas G12C
  POC: C (“C”>50% POC)
[1]
  IC50: > 1000 nM

## C=CC(=O)N1CCN(c2nc(OCCCN3CCN(C(C)=O)CC3)nc3c2CCN(c2cc(O)cc4ccccc24)C3)CC1 [Example 135, 1-[4-[2-[3-(4-acetylpiperazin-1-yl)propoxy]-7-(3-hydroxy-1-naphthyl)-6,8-dihydro-5H-pyrido[3,4-d]pyrimidin-4-yl]piperazin-1-yl]prop-2-en-1-one]
KRas G12C
  POC: C (“C”>50% POC)
[1]; NCI-H358, 3 h
  IC50: 0.1 to 1000 nM

## C=CC(=O)N1CCN(c2nc(OCCN3CCC(OC)C3)nc3c2CCN(c2cc(O)cc4ccccc24)C3)CC1 (stereo not shown) [Example 136, 1-[4-[7-(3-hydroxy-1-naphthyl)-2-[2-(3-methoxypyrrolidin-1-yl)ethoxy]-6,8-dihydro-5H-pyrido[3,4-d]pyrimidin-4-yl]piperazin-1-yl]prop-2-en-1-one]
KRas G12C
  POC: C (“C”>50% POC)
[1]; NCI-H358, 3 h
  IC50: > 1000 nM

## C=CC(=O)N1CCN(c2nc(OCCCN3CCC(OC)C3)nc3c2CCN(c2cc(O)cc4ccccc24)C3)CC1 (stereo not shown) [Example 137, 1-[4-[7-(3-hydroxy-1-naphthyl)-2-[3-(3-methoxypyrrolidin-1-yl)propoxy]-6,8-dihydro-5H-pyrido[3,4-d]pyrimidin-4-yl]piperazin-1-yl]prop-2-en-1-one]
KRas G12C
  POC: C (“C”>50% POC)
[1]; NCI-H358, 3 h
  IC50: > 1000 nM

## C=CC(=O)N1CCN(c2nc(OCCN3CC(F)(F)C3)nc3c2CCN(c2cc(O)cc4ccccc24)C3)CC1 [Example 138, 1-[4-[2-[2-(3,3-difluoroazetidin-1-yl)ethoxy]-7-(3-hydroxy-1-naphthyl)-6,8-dihydro-5H-pyrido[3,4-d]pyrimidin-4-yl]piperazin-1-yl]prop-2-en-1-one]
KRas G12C
  POC: C (“C”>50% POC)
[1]; NCI-H358, 3 h
  IC50: > 1000 nM

## C=CC(=O)N1CCN(c2nc(OCCN3CCC(F)(F)C3)nc3c2CCN(c2cc(O)cc4ccccc24)C3)CC1 [Example 139, 1-[4-[2-[2-(3,3-difluoropyrrolidin-1-yl)ethoxy]-7-(3-hydroxy-1-naphthyl)-6,8-dihydro-5H-pyrido[3,4-d]pyrimidin-4-yl]piperazin-1-yl]prop-2-en-1-one]
KRas G12C
  POC: C (“C”>50% POC)
[1]; NCI-H358, 3 h
  IC50: > 1000 nM

## C=CC(=O)N1CCN(c2nc(OCC3CCN(CC(=O)N(C)C)C3)nc3c2CCN(c2cc(O)cc4ccccc24)C3)CC1 (stereo not shown) [Example 140, 2-[3-[[7-(3-hydroxy-1-naphthyl)-4-(4-prop-2-enoylpiperazin-1-yl)-6,8-dihydro-5H-pyrido[3,4-d]pyrimidin-2-yl]oxymethyl]pyrrolidin-1-yl]-N,N-dimethyl-acetamide]
KRas G12C
  POC: C (“C”>50% POC)
[1]; NCI-H358, 3 h
  IC50: > 1000 nM

## C=CC(=O)N1CCN(c2nc(OCC3CCN(CCO)C3)nc3c2CCN(c2cc(O)cc4ccccc24)C3)CC1 (stereo not shown) [Example 141, 1-[4-[2-[[1-(2-hydroxyethyl)pyrrolidin-3-yl]methoxy]-7-(3-hydroxy-1-naphthyl)-6,8-dihydro-5H-pyrido[3,4-d]pyrimidin-4-yl]piperazin-1-yl]prop-2-en-1-one]
KRas G12C
  POC: C (“C”>50% POC)
[1]; NCI-H358, 3 h
  IC50: > 1000 nM

## C=CC(=O)N1CCN(c2nc(OCCO)nc3c2CCN(c2cc(O)cc4ccccc24)C3)CC1 [Example 142, 1-[4-[2-(2-hydroxyethoxy)-7-(3-hydroxy-1-naphthyl)-6,8-dihydro-5H-pyrido[3,4-d]pyrimidin-4-yl]piperazin-1-yl]prop-2-en-1-one]
KRas G12C
  POC: C (“C”>50% POC)
[1]; NCI-H358, 3 h
  IC50: > 1000 nM

## C=CC(=O)N1CCN(c2nc(OCC(O)CO)nc3c2CCN(c2cc(O)cc4ccccc24)C3)CC1 (stereo not shown) [Example 143, 1-[4-[2-(2,3-dihydroxypropoxy)-7-(3-hydroxy-1-naphthyl)-6,8-dihydro-5H-pyrido[3,4-d]pyrimidin-4-yl]piperazin-1-yl]prop-2-en-1-one]
KRas G12C
  POC: C (“C”>50% POC)
[1]; NCI-H358, 3 h
  IC50: > 1000 nM
